Reference: US20110046070A1, “GENE EXPRESSION INHIBITOR SELECTIVE FOR MATRIX METALLOPROTEINASE-9 GENE” (priority 2008, published 2011)

Assays:
[1] = tested on: human breast cancer MDA-MB-231 cells; experiment: Wound-healing migration assay, MDA-MB-231; format: cell-based; details: 48 hours after the damage, various concentrations, vs DMSO
Description: A human breast cancer MDA-MB-231 cell strain was used. The cells were cultured at 37° C. in a humid environment containing 5% CO^2 in an RPMI1640 medium (Sigma-Aldrich Corp., St. Louis, Mo., USA) supplemented with 100 μg/ml streptomycin, 100 units/ml penicillin and 10% fetal bovine serum (FBS) (Sigma-Aldrich Corp.). Human uterine cervix cancer HeLa cells were cultured in a Dulbecco's modified Eagle medium (DMEM, Invitrogen Life Technologies, Corp., Carlsbad, Calif.) containing 10% FBS and 2 mM L-glutamine.
To assay cellular migration in the process of wound healing, 3×10^5 cells were inoculated to each well of an 8-well chamber slide, and the cell layer was damaged using a plastic micropipette when the cells reached confluence. The medium and debris were removed by suction, and 100 μl of a fresh medium containing various polyamides was replaced therefor. 48 hours after the damage, the cells were fixed with Diff-Quik solution (SYSMEX INTERNATIONAL REAGENTS CO., LTD., Kobe, Japan), then stained, and photographed using a phase-contrast microscope.

HeLa cells [2] = experiment: Growth inhibition assay, HeLa; format: cell-based, human; details: 0 μM to 30 μM, 72 hours, WST-8
Description: Cell growth inhibition test was conducted using MDA-MB-231 and HeLa cells. The HeLa cells were inoculated at a concentration of 2500 cells/well to a 96-well microtiter plate and incubated for 24 hours in 100 μl of Dulbecco's modified Eagle medium (DMEM) containing 10% fetal bovine serum (Invitrogen). Then, after medium replacement, the cells were cultured for 72 hours in a medium supplemented with 10% fetal bovine serum containing 0 μM to 30 μM (0 μM, 0.3 μM, 1 μM, 3 μM, 10 μM and 30 μM) polyamide HMMP9NFκβ, and 10 μl of live cell counting reagent SF (Nacalai Tesque, Inc.) was added thereto, followed by 2-hour color reaction. Absorbance was measured at 450 nm using an ARVO microtiter plate reader. This experiment was conducted by modified MTT assay (WST-8 ™: Nacalai Tesque, Inc.) using water-soluble formazan.

HeLa cells [3] = experiment: Invasion assay into matrigel, HeLa; format: cell-based, human; details: various concentrations
Description: (§1) Cell invasion assay was conducted using a 24-well cell culture BioCoat matrigel invasion chamber (BD Biosciences, Discovery Labware, Bedford, Mass., USA). MDA-MB-231 cells (1×10^3 cells/well) or HeLa cells (1×10^3 cells/well) were suspended in an RPMI1640 or DMEM medium containing 0.1% FBS and added to the upper chamber. An RPMI1640 or DMEM medium containing 5% FBS was added to the lower chamber. Then, the cells were cultured at 37° C. for 22 hours in a 5% CO2 environment. Noninvasive cells remaining on the membrane were wiped off using a cotton swab. Invasion cells were fixed and stained with a Diff-Quik kit. The number of cells invading the membrane was determined in mean±standard deviation from a total of 3 membranes by counting in 10 fields of view per membrane using an optical microscope (200× magnification).

MDA-MB-231 cells = experiment: Invasion assay into matrigel, MDA-MB-231; format: cell-based, human; details: 22 hours
Description: as §1
The degradation of constitutive proteins of extracellular matrix is important for the invasion of tumor cells. To evaluate the influence of HMMP9AP1 and HMMP9NFκβ, the MMP9 Py-Im polyamides of the present invention, on the invasion of tumor cells, 5×10^3 MDA-MB-231 cells were incubated with each polyamide at various concentrations for 22 hours. The invasiveness of cells treated with DMSO or each polyamide of the present invention was compared in MDA-MB-231 cells. The DMSO-treated MDA-MB-231 cells remarkably invaded the transparent membrane coated with matrigel. […] In contrast, the cells treated with the HMMP9AP1 or HMMP9NFκβ of the present invention had much lower invasion into the membrane.

[4] = tested on: MMP-9 protein in MDA-MB-231 cells; experiment: Western blotting analysis (protein assay); format: cell-based, human; details: MDA-MB-231, 48 hours, various concentrations, vs DMSO control
Description: MDA-MB-231 cells were treated with the polyamide of the present invention at various concentrations. 48 hours after the treatment, the cells were collected, and the total cell lysate was prepared into an extraction buffer containing a protease inhibition cocktail (Boehringer Ingelheim GmbH, Germany) containing 50 mM Tris-HCl, 150 mM NaCl, 10 mM EDTA and 1% Triton-X. Homogenates were centrifuged at 15,000×g at 4° C. for 10 minutes. The supernatants were collected, and protein concentrations were measured. The protein sample (10 μg) was electrophoresed on NuPAGE+™ 10% Bis-Tris gel (Invitrogen Life Technologies, Corp.) and transferred to a PVDF (polyvinylidene difluoride) membrane (Millipore, Bedford, Mass.). The PVDF membrane was incubated overnight with rabbit anti-MMP-9 polyclonal antibodies (Calbiochem (registered trademark) Biosciences, Inc. La Jolla, Calif.) (1:500) obtained from Calbiochem (registered trademark). The PVDF membrane was washed three times with a Tris buffer containing 0.2% Tween 20. The immunoconjugated proteins were identified through reaction with peroxidase-conjugated goat antibodies against rabbit IgG (MP Biomedicals, Inc.) and subsequently amplified by chemiluminescence detection (Amersham, Piscataway, N.J.).

| SMILES | migration of MDA-MB-231 cells [1] | number of live cells (growth inhibition) (HeLa cells [2]) | invasion of HeLa cells into matrigel (HeLa cells [3]) | decrease in invasion compared to the DMSO-treated control (MDA-MB-231 cells; 0.3 μM) [%] | decrease in invasion compared to the DMSO-treated control (MDA-MB-231 cells; 1 μM) [%] | decrease in invasion compared to the DMSO-treated control (MDA-MB-231 cells; 3 μM) [%] | decrease in invasion compared to the DMSO-treated control (MDA-MB-231 cells; 10 μM) [%] | expression of MMP-9 protein [4] |
| --- | --- | --- | --- | --- | --- | --- | --- | --- |
| CC(=O)Nc1cn(C)c(C(=O)Nc2cc(C(=O)NCCC(=O)Nc3cn(C)c(C(=O)Nc4cc(C(=O)Nc5cc(C(=O)NCCCC(=O)Nc6cn(C)c(C(=O)Nc7cn(C)c(C(=O)Nc8cc(C(=O)NCCC(=O)Nc9cn(C)c(C(=O)Nc%10cc(C(=O)NCCC(=O)NCCCN(C)C)n(C)c%10)n9)n(C)c8)n7)n6)n(C)c5)n(C)c4)n3)n(C)c2)n1 [HMMP9AP1] | inhibit the migration of MDA-MB-231 cells in a concentration-dependent manner | decreased the number of live cells | inhibited the invasion activities | 90 | 52 | 44 | 25.4 | remarkably inhibited |
| CC(=O)Nc1cc(C(=O)Nc2cc(C(=O)NCCC(=O)Nc3cc(C(=O)Nc4cc(C(=O)NCCCC(=O)Nc5cn(C)c(C(=O)Nc6cn(C)c(C(=O)NCCC(=O)Nc7cc(C(=O)Nc8cc(C(=O)NCCC(=O)NCCCN(C)C)n(C)c8)n(C)c7)n6)n5)n(C)c4)n(C)c3)n(C)c2)n(C)c1 [HMMP9NFκβ] | inhibit the migration of MDA-MB-231 cells in a concentration-dependent manner | decreased the number of live cells in a concentration-dependent manner | invasion into matrigel decreases in an HMMP9NFκβ concentration-dependent manner | 88 | 61 | 30 | 22 | decreased in an HMMP9NFκβ concentration-dependent manner |
